The values below come from ChEMBL document CHEMBL1152026, “Phosphonamidates and phosphonamidate esters as HIV-1 protease inhibitors” (Bioorg Med Chem Lett, 1991).

The nature of data set [1]: The half-life period was determined. Format: ADME.
In data set [2] the target is T1, Human immunodeficiency virus type 1 protease (Human immunodeficiency virus 1, UniProt Q72874). As to the kind of experiment: Compound was evaluated for its binding affinity against HIV-1 protease.
For data set [3], the target named is T1, Human immunodeficiency virus type 1 protease. As to the kind of experiment: Compound was evaluated for its inhibitory activity against HIV-1 protease.

`NC(=O)[C@H](Cc1ccccc1)NP(=O)(O)C(Cc1ccccc1)NC(=O)C(F)(F)F` (stereo not given in full) had a half-life in data set [1] of 30 h. Further, the Ki in data set [2] came to 45 µM. In data set [3], inhibition was half-maximal at 105 µM (IC50).

In turn, `COP(=O)(C(Cc1ccccc1)NC(=O)C(F)(F)F)N1CCC[C@H]1C(N)=O` (stereo not given in full) yielded a Ki in data set [2] of 44 µM. This compound also had an IC50 in data set [3] of 103 µM.

`COP(=O)(N[C@@H](Cc1ccccc1)C(N)=O)C(Cc1ccccc1)NC(=O)C(F)(F)F` (stereo not given in full) returned a Ki in data set [2] of 80 µM. For the same compound, the IC50 in data set [3] amounted to 184 µM.

In turn, `NC(=O)[C@@H]1CCCN1P(=O)(O)C(Cc1ccccc1)NC(=O)C(F)(F)F` (stereo not given in full) showed a half-life in data set [1] of 5 h. Besides, affinity in data set [2] was put at a Ki of 52 µM. In data set [3], this compound gave an IC50 of 121 µM.
